Tests used:
anesthetized dogs [1] = assay: Infusion to anesthetized dogs, measuring renal blood flow and renal vascular resistance (procedure of U.S. Pat. No. 4,197,297); assay type: in vivo, dog
Description: Specific results are included in the examples.

anesthetized dogs [2] = assay: Secondary testing (ED15); assay type: in vivo, dog
[3] = infusion 300 μg/kg/min, anesthetized dog
[4] = 300 μg/kg/min, anesthetized dog
[5] = infusion 30 μg/kg/min, anesthetized dog
[6] = infusion at 30 and 300 μg/kg/min

CC(Cc1ccccc1)(NC(=O)[C@@H]1CCCN1C(=O)CCCc1ccc(O)cc1)C(=O)NCCCN.Cl (stereo partly drawn) [Example 5, N-4-(4'-hydroxyphenylbutyryl)-L-prolyl-D,L-α-methylphenylalanine ω-aminopropylamide, hydrochloride]
cumulative drug effect (anesthetized dogs [1]; infused in anesthetized dogs): demonstrated a cumulative drug effect | increase of renal blood flow (anesthetized dogs [1]; [3]): +11.7% | decrease of vascular renal resistance (anesthetized dogs [1]; infusion 300 μg/kg/min, anesthetized dogs): 11.3%

CC(=O)O.CC(Cc1ccc(O)cc1)(NC(=O)[C@@H]1CCCN1C(=O)CCCc1ccc(O)cc1)C(=O)N[C@@H](CCCNC(=N)N)C(=O)O (stereo partly drawn) [Example 3, N-4-(4'-hydroxyphenyl)-butyryl-L-prolyl-D,L-α-methyltyrosyl-L-arginine acetic acid salt]
decrease of renal vascular resistance (anesthetized dogs [1]; 3 μg/kg/min, anesthetized dog): -12 | increase of renal blood flow (anesthetized dogs [1]; 3 μg/kg/min, anesthetized dog): +8.0 | increase of renal blood flow (anesthetized dogs [1]; 30 μg/kg/min, anesthetized dog): +12.0 | decrease of renal vascular resistance (anesthetized dogs [1]; [4]): -11 | increase of renal blood flow (anesthetized dogs [1]; [4]): +11.0 | increase of renal blood flow after a cumulative dose (anesthetized dogs [1]; cumulative dose at 3, 30 and 300 μg/kg/min): 28% | decrease of renal vascular resistance (anesthetized dogs [1]; [5]): -9

COc1ccc(CC(C)(NC(=O)[C@@H]2CCCN2C(=O)CCCc2ccc(O)cc2)C(=O)NCCCN)cc1OC.Cl (stereo partly drawn) [Example 2, N-4-(4'-hydroxyphenyl)-butyryl-L-prolyl-D,L-α-methyl-3,4-dimethoxyphenylalanine 3-aminopropylamide hydrochloride]
decrease of renal vascular resistance (anesthetized dogs [1]; infusion 3 μg/kg/min): -11% | increase of renal blood flow (anesthetized dogs [1]; infusion 3 μg/kg/min): +13.5% | renal blood flow (in words) (anesthetized dogs [1]; [6]): increased renal blood | renal vascular resistance (in words) (anesthetized dogs [1]; [6]): decreased renal vascular resistance

CC(=O)O.COc1ccc(CC(C)(NC(=O)[C@@H]2CCCN2C(=O)CCCc2ccc(O)cc2)C(=O)N[C@@H](CCCNC(=N)N)C(=O)O)cc1OC (stereo partly drawn) [Example 1, N-4-(4'-hydroxyphenyl)-butyryl-L-prolyl-D,L-α-methyl-3,4-dimethoxyphenylalanyl-L-arginine acetic acid salt]
ED15 (anesthetized dogs [2]): 0.506 mg/kg | decrease of renal vascular resistance (anesthetized dogs [1]; [5]): -21.3 | increase of renal blood flow (anesthetized dogs [1]; [5]): +18%

NCCc1ccc(O)c(O)c1 [Dopamine, reference compound]
ED15 (anesthetized dogs [2]): 0.0035 mg/kg

CC(Cc1ccc(O)cc1)(NC(=O)[C@@H]1CCCN1C(=O)CCCc1ccc(O)cc1)C(=O)NCCCN.Cl (stereo partly drawn) [Example 4, N-4-(4'-hydroxyphenylbutyryl)-L-prolyl-D,L-α-methyltyrosine ω-aminopropylamide, hydrochloride]
decrease of renal vascular resistance (anesthetized dogs [1]; 3 μg/kg/min, anesthetized dog): -9.5 | increase of renal blood flow (anesthetized dogs [1]; 3 μg/kg/min, anesthetized dog): +8.5

CC(=O)O.C[C@@](Cc1ccccc1)(NC(=O)[C@@H]1CCCN1C(=O)CCCc1ccc(O)cc1)C(=O)N[C@@H](CCCNC(=N)N)C(=O)O.O [Example 6, N-4-(4'-hydroxyphenyl)-butyryl-L-prolyl-D,L-α-methylphenylalanyl-L-arginine 1.5HOAc.1H2 O]
increase of renal blood flow (anesthetized dogs [1]; [5]): +12% | increase of renal blood flow (anesthetized dogs [1]; [3]): +11%
